Results from patent publication US11802120B2, “Fused cyclic urea derivatives as CRHR2 antagonist” (RaQualia Pharma Inc., priority 2018, dated 2023).

target: T1, human CRHR2-alpha (Homo sapiens, UniProt Q13324); assay: cAMP functional assay for human CRHR2 (LANCE Ultra cAMP, TR-FRET); assay type: cell-based; conditions: CHO-K1 cells expressing human CRHR2-alpha, agonist human urocortin2 at EC80, cAMP; read-out: IC50 against CRHR2
T1 sequence (Q13324 1-411): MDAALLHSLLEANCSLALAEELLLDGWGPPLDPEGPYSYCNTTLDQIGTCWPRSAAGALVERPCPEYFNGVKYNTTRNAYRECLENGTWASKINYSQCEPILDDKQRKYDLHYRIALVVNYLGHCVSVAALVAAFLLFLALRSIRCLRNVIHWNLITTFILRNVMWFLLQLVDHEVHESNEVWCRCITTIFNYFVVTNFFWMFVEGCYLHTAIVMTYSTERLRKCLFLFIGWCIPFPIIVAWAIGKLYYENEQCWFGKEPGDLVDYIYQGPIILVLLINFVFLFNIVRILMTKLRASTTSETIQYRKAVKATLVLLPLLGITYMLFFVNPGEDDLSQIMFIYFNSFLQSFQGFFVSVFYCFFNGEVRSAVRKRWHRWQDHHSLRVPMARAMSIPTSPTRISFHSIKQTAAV
Summary of the method: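 IC50 values derive from percent inhibition of EC80 agonist-stimulated cAMP in CHO-K1 transfectants, with 0.5 mM IBMX present; the CRHR2 line was stimulated by human urocortin2 and the CRHR1 line by CRF.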

IC50, < 300 nM:
Cc1ncc(Cl)cc1C(=O)N[C@H]1CC[C@H](Cn2c(=O)n(-c3ccc(NCc4cnn(C)c4)nc3)c3ccccc32)CC1 [Example 441, 5-chloro-2-methyl-N-((1r,4r)-4-((3-(6-(((1-methyl-1H-pyrazol-4-yl)methyl)amino)pyridin-3-yl)-2-oxo-2,3-dihydro-1H-benzo[d]imidazol-1-yl)methyl)cyclohexyl)nicotinamide]
CN(C)c1cc(-n2c(=O)n(C[C@H]3CC[C@H](NC(=O)c4cc(Cl)cnc4C(F)(F)F)CC3)c3ccccc32)ccn1 [Example 663, 5-chloro-N-((1r,4r)-4-((3-(2-(dimethylamino)pyridin-4-yl)-2-oxo-2,3-dihydro-1H-benzo[d]imidazol-1-yl)methyl)cyclohexyl)-2-(trifluoromethyl)nicotinamide]
Cc1ncc(Cl)cc1C(=O)N[C@H]1CC[C@H](Cn2c(=O)n(-c3cnc4c(cnn4CC4CC4)c3)c3ccccc32)CC1 [Example 252, 5-chloro-N-((1r,4r)-4-((3-(1-(cyclopropylmethyl)-1H-pyrazolo[3,4-b]pyridin-5-yl)-2-oxo-2,3-dihydro-1H-benzo [d]imidazol-1-yl)methyl)cyclo-hexyl)-2-methylnicotinamide]
Cc1c[nH]c2ncc(-n3c(=O)n(C[C@H]4CC[C@H](NC(=O)c5cc(Cl)cnc5C(F)(F)F)CC4)c4cccnc43)cc12 [Example 427, 5-chloro-N-((1r,4r)-4-((3-(3-methyl-1H-pyrrolo[2,3-b]pyridin-5-yl)-2-oxo-2,3-dihydro-1H-imidazo[4,5-b]pyridin-1-yl)methyl)cyclo-hexyl)-2-(trifluoromethyl) nicotinamide]
CNC(=O)c1ccc(-n2c(=O)n(C[C@H]3CC[C@H](NC(=O)c4cc(Cl)cnc4C)CC3)c3cc(C)ccc32)cn1 [Example 225, 5-(3-(((1r,4r)-4-(5-chloro-2-methylnicotinamido)cyclo-hexyl)methyl)-5-methyl-2-oxo-2,3-dihydro-1H-benzo [d]imidazol-1-yl)-N-methylpicolinamide]
Cn1cc(-c2cccc(-n3c(=O)n(C[C@H]4CC[C@H](NC(=O)c5cc(Cl)cnc5C(F)F)CC4)c4ccccc43)n2)cn1 [Example 657, 5-chloro-2-(difluoromethyl)-N-((1r,4r)-4-((3-(6-(1-methyl-1H-pyrazol-4-yl)pyridin-2-yl)-2-oxo-2,3-dihydro-1H-benzo[d]imidazol-1-yl)methyl)cyclohexyl)nicotinamide]
Cc1ncc(Cl)cc1C(=O)N[C@H]1CC[C@H](Cn2c(=O)n(-c3ccc4cncn4c3)c3ccccc32)CC1 [Example 274, 5-chloro-N-((1r,4r)-4-((3-(imidazo[1,5-a]pyridin-6-yl)-2-oxo-2,3-dihydro-1H-benzo [d]imidazol-1-yl)methyl)cyclohexyl)-2-methylnico-tinamide]
CNc1cccc(-n2c(=O)n(C[C@H]3CC[C@H](NC(=O)c4cc(Cl)cnc4C(F)F)CC3)c3ccccc32)n1 [Example 662, 5-chloro-2-(difluoromethyl)-N-((1r,4r)-4-((3-(6-(methylamino)pyridin-2-yl)-2-oxo-2,3-dihydro-1H-benzo[d]imidazol-1-yl)methyl)cyclohexyl)nicotinamide]
O=C(N[C@H]1CC[C@H](Cn2c(=O)n(-c3ccnc(-n4ccnc4)c3)c3ccccc32)CC1)c1cc(Cl)cnc1C(F)F [Example 570, N-((1r,4r)-4-((3-(2-(1H-imidazol-1-yl)pyridin-4-yl)-2-oxo-2,3-dihydro-1H-benzo [d]imidazol-1-yl)methyl)cyclohexyl)-5-chloro-2-(difluoromethyl)nicotinamide]
CNc1cc(C)c(-n2c(=O)n(C[C@H]3CC[C@H](NC(=O)c4cc(Cl)cnc4C(F)(F)F)CC3)c3ccccc32)cn1 [Example 545, 5-chloro-N-((1r,4r)-4-((3-(4-methyl-6-(methylamino)pyridin-3-yl)-2-oxo-2,3-dihydro-1H-benzo[d]imidazol-1-yl)methyl)cyclohexyl)-2-(trifluoromethyl)nicotinamide]
CCn1nc2ccccc2c1C(=O)N[C@H]1CC[C@H](Cn2c(=O)n(-c3ccc(C)nc3)c3ccccc32)CC1 [Example 38, 2-ethyl-N-((1r,4r)-4-((3-(6-methylpyridin-3-yl)-2-oxo-2,3-dihydro-1H-benzo[d]imidazol-1-yl)methyl)cyclohexyl)-2H-indazole-3-carboxamide]
Cc1ccc(-n2c(=O)n(C[C@H]3CC[C@H](NC(=O)c4cc(Cl)cnc4C(F)F)CC3)c3cccnc32)cc1 [Example 389, 5-chloro-2-(difluoromethyl)-N-((1r,4r)-4-((2-oxo-3-(p-tolyl)-2,3-dihydro-1H-imidazo[4,5-b]pyridin-1-yl)methyl)cyclohexyl)nicotinamide]
CN(C)c1ccc(-n2c(=O)n(C[C@H]3CC[C@H](NC(=O)c4cc(Cl)cnc4C(F)(F)F)CC3)c3ccccc32)cn1 [Example 333, 5-chloro-N-((1r,4r)-4-((3-(6-(dimethylamino)pyridin-3-yl)-2-oxo-2,3-dihydro-1H-benzo [d]imidazol-1-yl)methyl)cyclohexyl)-2-(trifluoromethyl) nicotinamide]
Cc1ncc(Cl)cc1C(=O)N[C@H]1CC[C@H](Cn2c(=O)n(-c3cncc(-n4cccn4)c3)c3ccccc32)CC1 [Example 636, N-((1r,4r)-4-((3-(5-(1H-pyrazol-1-yl)pyridin-3-yl)-2-oxo-2,3-dihydro-1H-benzo[d]imidazol-1-yl)methyl)cyclohexyl)-5-chloro-2-methylnicotinamide]
Cc1ncc(Cl)cc1C(=O)N[C@H]1CC[C@H](Cn2c(=O)n(-c3ccc(OCC4CC4)nc3)c3ccccc32)CC1 [Example 112, 5-chloro-N-(4-((3-(6-(cyclopropylmethoxy)pyridin-3-yl)-2-oxo-2,3-dihydro-1H-benzo [d]imidazol-1-yl)methyl)cyclohexyl)-2-methylnicotinamide]
Cc1ncc(Cl)cc1C(=O)N[C@H]1CC[C@H](Cn2c(=O)n(-c3ccc(N4CCCC(O)C4)nc3)c3ccccc32)CC1 (some centres unmarked) [Example 95, 5-chloro-N-((1r,4r)-4-((3-(6-(3-hydroxypiperidin-1-yl)pyridin-3-yl)-2-oxo-2,3-dihydro-1H-benzo[d]imidazol-1-yl)methyl)cyclohexyl)-2-methylnicotinamide]
O=C(NC1CC1)c1ccc(-n2c(=O)n(C[C@H]3CC[C@H](NC(=O)c4cc(Cl)cnc4C(F)F)CC3)c3ccccc32)cn1 [Example 585, 5-(3-(((1r,4r)-4-(5-chloro-2-(difluoromethyl)nicotinamido)cyclohexyl)methyl)-2-oxo-2,3-dihydro-1H-benzo[d]imidazol-1-yl)-N-cyclopropyl-picolinamide]
CNC(=O)c1ccc(-n2c(=O)n(C[C@H]3CC[C@H](NC(=O)c4cc(Cl)cnc4C(F)F)CC3)c3cc(C)ccc32)cn1 [Example 529, 5-(3-(((1r,4r)-4-(5-chloro-2-(difluoromethyl)nicotinamido)cyclohexyl)methyl)-5-methyl-2-oxo-2,3-dihydro-1H-benzo [d]imidazol-1-yl)-N-methylpicolinamide]
O=C(N[C@H]1CC[C@H](Cn2c(=O)n(-c3ccc(N4CCNC4=O)nc3)c3ccc(F)cc32)CC1)c1cc(Cl)cnc1C(F)F [Example 736, 5-chloro-2-(difluoromethyl)-N-((1r,4r)-4-((6-fluoro-2-oxo-3-(6-(2-oxoimidazolidin-1-yl)pyridin-3-yl)-2,3-dihydro-1H-benzo[d]imidazol-1-yl)methyl)cyclohexyl) nicotinamide]
Cc1csc(CNC(=O)c2ccc(-n3c(=O)n(C[C@H]4CC[C@H](NC(=O)c5cc(Cl)cnc5C)CC4)c4ccccc43)cn2)n1 [Example 180, 5-(3-(((1r,4r)-4-(5-chloro-2-methylnicotinamido)cyclo-hexyl)methyl)-2-oxo-2,3-dihydro-1H-benzo[d]imidazol-1-yl)-N-((4-methylthiazol-2-yl)methyl)picolinamide]
O=C(N[C@H]1CC[C@H](Cn2c(=O)n(-c3ccc(O[C@@H]4CCOC4)nc3)c3ccccc32)CC1)c1cc(Cl)cnc1C(F)F [Example 428, 5-chloro-2-(difluoromethyl)-N-((1R,4r)-4-((2-oxo-3-(6-(((R)-tetrahydrofuran-3-yl)oxy)pyridin-3-yl)-2,3-dihydro-1H-benzo[d]imidazol-1-yl)methyl)cyclohexyl)nicotinamide]
Cc1ncc(Cl)cc1C(=O)N[C@H]1CC[C@H](Cn2c(=O)n(-c3ccn4ccnc4c3)c3ccccc32)CC1 [Example 272, 5-chloro-N-((1r,4r)-4-((3-(imidazo[1,2-a]pyridin-7-yl)-2-oxo-2,3-dihydro-1H-benzo [d]imidazol-1-yl)methyl)cyclohexyl)-2-methyl-nicotinamide]
CCn1ncc2cc(-n3c(=O)n(C[C@H]4CC[C@H](NC(=O)c5cc(Cl)cnc5C)CC4)c4ccccc43)cnc21 [Example 250, 5-chloro-N-((1r,4r)-4-((3-(1-ethyl-1H-pyrazolo[3,4-b]pyridin-5-yl)-2-oxo-2,3-dihydro-1H-benzo[d]imidazol-1-yl)methyl)cyclo-hexyl)-2-methylnicotinamide]
